Active and inactive are the calls of the source. The calls are words filed in the database; no cut-off is given here.

The test system of test [1] is Staphylococcus aureus.
The subject of test [2] is Pseudomonas aeruginosa.
The test system of test [3] is Pseudomonas aeruginosa. The source holds these as a separate data set.
Description: (§1) Antibacterial activity against Pseudomonas aeruginosa assessed as growth inhibition after 24 hrs by turbidimetric method
Test [4] has as its system Staphylococcus aureus. The source holds these as a separate data set.
Description: Bactericidal activity against Staphylococcus aureus assessed number of surviving colonies after 24 hrs
Test [5] relates to Staphylococcus aureus. The experiment in a line: Antibacterial activity against Staphylococcus aureus assessed as growth inhibition after 24 hrs by turbidimetric method. The format is functional.
The subject of test [6] is Staphylococcus aureus. The experiment in a line: Bactericidal activity against Staphylococcus aureus […] assessed number of surviving colonies after 24 hrs in presence of urea. It counts as functional, organism-based.
Test [7] deals with Staphylococcus aureus. In words: Antibacterial activity against Staphylococcus aureus assessed as growth inhibition after 24 hrs in presence of urea by turbidimetric method. It counts as functional.
Test [8] deals with Pseudomonas aeruginosa. In words: Bactericidal activity against Pseudomonas aeruginosa assessed number of surviving colonies after 24 hrs in presence of urea. The format is functional. The conditions noted are these: read-out: MBC99.9.
The test system of test [9] is Staphylococcus aureus. The experiment in a line: Bactericidal activity against Staphylococcus aureus […] assessed number of surviving colonies after 24 hrs in presence of carbonate. It counts as functional, organism-based.
Test [10] relates to Pseudomonas aeruginosa. The experiment in a line: Antibacterial activity against Pseudomonas aeruginosa assessed as growth inhibition after 24 hrs in presence of carbonate by turbidimetric method. It counts as functional.
For test [11], the system named is Pseudomonas aeruginosa. The experiment in a line: Antibacterial activity against Pseudomonas aeruginosa using 24 hrs aged compound solutions by cup diffusion method. The format is functional, organism-based.
For test [12], the system named is Staphylococcus aureus. The experiment in a line: Antibacterial activity against Staphylococcus aureus assessed as growth inhibition after 24 hrs in presence of carbonate by turbidimetric method. It counts as functional.
The subject of test [13] is Pseudomonas aeruginosa. The experiment in a line: Bactericidal activity against Pseudomonas aeruginosa assessed number of surviving colonies after 24 hrs in presence of carbonate. It counts as functional. The conditions noted are these: read-out: MBC99.9.
The subject of test [14] is Pseudomonas aeruginosa. In words: Antibacterial activity against Pseudomonas aeruginosa assessed as growth inhibition after 24 hrs in presence of urea by turbidimetric method. The format is functional.
Test [15] relates to Pseudomonas aeruginosa. The experiment in a line: microbe, parasite or virus in culture. It counts as functional. The conditions noted are these: 24 h.
Description: as §1
The test system of test [16] is Pseudomonas aeruginosa. The experiment in a line: Bactericidal activity against Pseudomonas aeruginosa assessed number of surviving colonies after 24 hrs. The format is functional. The conditions noted are these: read-out: MBC99.9.
For test [17], the system named is Pseudomonas aeruginosa. The experiment in a line: Antibacterial activity against Pseudomonas aeruginosa at 125 ug/ml by cup diffusion method. The format is functional, organism-based.
Test [18] deals with Staphylococcus aureus. The experiment in a line: Antibacterial activity against Staphylococcus aureus at 250 ug/ml by cup diffusion method. The format is functional, organism-based.
Test [19] deals with Pseudomonas aeruginosa. The experiment in a line: Antibacterial activity against Pseudomonas aeruginosa at 7.8 ug/ml by cup diffusion method. The format is functional, organism-based.
Test [20] has as its system Pseudomonas aeruginosa. In words: Potency index, ratio of MIC for Pseudomonas aeruginosa to MIC for Pseudomonas aeruginosa assessed as growth inhibition in presence of urea. It counts as functional.
Test [21] deals with Staphylococcus aureus. In words: Potency index, ratio of MIC for Staphylococcus aureus to MIC for Staphylococcus aureus assessed as growth inhibition in presence of urea. It counts as functional.
Test [22] concerns Staphylococcus aureus. In words: Antibacterial activity against Staphylococcus aureus at <125 ug/ml by cup diffusion method. The format is functional, organism-based.

`NC(N)=O`: the MIC entry in the test with Staphylococcus aureus [1] and with Pseudomonas aeruginosa [3] was “inactive” in each case. Besides, the MBC99.9 result in the test with Pseudomonas aeruginosa [2] and with Staphylococcus aureus [4] was “inactive” each time.

Turning to `O=S(=O)([O-])SSSS(=O)(=O)[O-].[K+].[K+]`, the MIC with Staphylococcus aureus [5] was 62.5 µg/mL; in the test with Pseudomonas aeruginosa [10], 3.91 µg/mL; in the test on Staphylococcus aureus [12], 125 µg/mL; in the test with Pseudomonas aeruginosa [14], 15.6 µg/mL; in the test with Pseudomonas aeruginosa [15], 1.95 µg/mL. Moreover, the MBC99.9 result in the test with Staphylococcus aureus [6], in the test with Staphylococcus aureus [9] and with Staphylococcus aureus [4] was “inactive” each time. Also, the MIC entry with Staphylococcus aureus [7] is “inactive”. The MBC in the test on Pseudomonas aeruginosa [8] was 1000 µg/mL; in the test with Pseudomonas aeruginosa [13], 1000 µg/mL; with Pseudomonas aeruginosa [16], 500 µg/mL. Moreover, the result in the test on Pseudomonas aeruginosa [11] was Active.

As to `O=S(=O)(O)O`, the MIC result in the test with Staphylococcus aureus [1] and in the test on Pseudomonas aeruginosa [3] was “inactive” each time. In addition, the MBC99.9 result in the test with Pseudomonas aeruginosa [2] and with Staphylococcus aureus [4] was “inactive” in each case.

`O=S(O)(O)=S`: the MIC entry with Staphylococcus aureus [1] and in the test with Pseudomonas aeruginosa [3] was “inactive” in each case. Besides, the MBC99.9 entry in the test with Pseudomonas aeruginosa [2] and with Staphylococcus aureus [4] was “inactive” throughout.

Consider `O=S(=O)(O)SSS(=O)(=O)O`, for which the MIC result in the test with Staphylococcus aureus [1] and in the test with Pseudomonas aeruginosa [3] was “inactive” throughout. Further, the MBC99.9 result in the test with Pseudomonas aeruginosa [2] and in the test with Staphylococcus aureus [4] was “inactive” in each case.

`O=S(=O)([O-])SSSSS(=O)(=O)[O-].[K+].[K+]`: the MIC came to 7.81 µg/mL in the test with Staphylococcus aureus [5]; 62.5 µg/mL in the test on Staphylococcus aureus [7]; 1.95 µg/mL with Pseudomonas aeruginosa [10]; 15.6 µg/mL with Staphylococcus aureus [12]; 1.95 µg/mL in the test on Pseudomonas aeruginosa [14]; 0.98 µg/mL against Pseudomonas aeruginosa [15]. Besides, the result in the test on Pseudomonas aeruginosa [17], in the test with Staphylococcus aureus [18], in the test with Pseudomonas aeruginosa [19] and with Pseudomonas aeruginosa [11] was Active. Moreover, the MBC99.9 entry in the test with Staphylococcus aureus [6], with Staphylococcus aureus [9] and with Staphylococcus aureus [4] was “inactive” in each case. For the same compound, the MBC with Pseudomonas aeruginosa [8] was found to be 500 µg/mL; in the test with Pseudomonas aeruginosa [13], 500 µg/mL; in the test on Pseudomonas aeruginosa [16] it was 1000 µg/mL. For the same compound, the Ratio in the test on Pseudomonas aeruginosa [20] and in the test on Staphylococcus aureus [21] was 4 each time. In addition, the result in the test on Staphylococcus aureus [22] was inactive.

Turning to `O=S(=O)(O)SS(=O)(=O)O`, the MIC result in the test on Staphylococcus aureus [1] and in the test on Pseudomonas aeruginosa [3] was “inactive” in each case. Further, the MBC99.9 result with Pseudomonas aeruginosa [2] and in the test with Staphylococcus aureus [4] was “inactive” each time.

The record behind these values is ChEMBL document CHEMBL3751744, “Antibacterial activities of polythionates enhanced by carbonates” (2015).
